The supplement of paper PMC10883282
± gives the standard deviation of the averaged measurements.

Tested on: A204
Test: relative viability vs DMSO control (72 h) (fraction); higher = more viable cells
In short: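 Sarcoma cell lines were plated in 384 wells to reach 80–90% confluence, treated after 24 h with 2.5 µl of serially diluted compound and held 72 h at 37 °C, 5% CO2. Relative viability was taken as percent growth from ATPLite readings, averaged over up to triplicate wells. The values were rescaled so that 1 marks full and 0 marks none.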

| Compound | relative viability (0.00017 µM) | relative viability (0.00051 µM) | relative viability (0.00152 µM) | relative viability (0.00457 µM) | relative viability (0.01372 µM) | relative viability (0.04115 µM) | relative viability (0.1235 µM) | relative viability (0.3704 µM) | relative viability (1.111 µM) | relative viability (3.333 µM) | relative viability (10 µM) |
| --- | --- | --- | --- | --- | --- | --- | --- | --- | --- | --- | --- |
| Cc1ccc(F)c(NC(=O)Nc2ccc(-c3cccc4[nH]nc(N)c34)cc2)c1 [Linifanib] | 1.07 ± 0.037 | 1.11 ± 0.047 | 1.08 ± 0.037 | 1.073 ± 0.0063 | 1.06 ± 0.02 | 0.973 ± 0.13 | 0.659 ± 0.03 | 0.469 ± 0.066 | 0.435 ± 0.034 | 0.414 ± 0.032 | 0.439 ± 0.01 |
| CNC(=O)c1ccc(-c2cnc3ncc(Cc4ccc5ncccc5c4)n3n2)cc1F [Capmatinib] | 1.1 ± 0.029 | 1.07 ± 0.019 | 1.08 ± 0.04 | 1.08 ± 0.024 | 1.07 ± 0.038 | 1.06 ± 0.015 | 1.1 ± 0.02 | 1.07 ± 0.054 | 1.04 ± 0.027 | 0.984 ± 0.054 | 0.787 ± 0.035 |
| CN1CCC(COc2cnc(-c3cccc(Cn4nc(-c5cccc(C#N)c5)ccc4=O)c3)nc2)CC1 [Tepotinib] | 1.11 ± 0.052 | 1.09 ± 0.052 | 1.1 ± 0.044 | 1.09 ± 0.059 | 1.08 ± 0.043 | 1.05 ± 0.012 | 1.09 ± 0.047 | 1.05 ± 0.03 | 1.07 ± 0.083 | 1.06 ± 0.073 | 0.76 ± 0.054 |
| N#CC[C@H](C1CCCC1)n1cc(-c2ncnc3[nH]ccc23)cn1 [Ruxolitinib] | 1.02 ± 0.015 | 1.03 ± 0.018 | 1.02 ± 0.049 | 1.02 ± 0.027 | 1.01 ± 0.026 | 1.01 ± 0.005 | 1.008 ± 0.0097 | 0.983 ± 0.031 | 0.96 ± 0.083 | 0.789 ± 0.053 | 0.655 ± 0.05 |
| CC(C)(C)c1cc(NC(=O)Nc2ccc(-c3cn4c(n3)sc3cc(OCCN5CCOCC5)ccc34)cc2)no1 [Quizartinib] | 1.05 ± 0.035 | 1.08 ± 0.02 | 1.06 ± 0.032 | 1.08 ± 0.023 | 1.067 ± 0.0075 | 0.946 ± 0.039 | 0.752 ± 0.052 | 0.472 ± 0.011 | 0.42 ± 0.02 | 0.369 ± 0.032 | 0.396 ± 0.021 |
| COc1c(OCCCN2CCOCC2)ccc2c1N=C(NC(=O)c1cnc(N)nc1)N1CCN=C21 [Copanlisib] | 1.05 ± 0.035 | 1.01 ± 0.07 | 0.927 ± 0.023 | 0.711 ± 0.055 | 0.583 ± 0.037 | 0.481 ± 0.049 | 0.399 ± 0.05 | 0.316 ± 0.027 | 0.268 ± 0.018 | 0.235 ± 0.019 | 0.211 ± 0.038 |
| Cc1ccc(NC(=O)c2ccc(CN3CCN(C)CC3)cc2)cc1Nc1nc(-c2cccnc2)cs1 [Masitinib] | 1.01 ± 0.019 | 1.03 ± 0.039 | 1.06 ± 0.013 | 1.05 ± 0.065 | 1.09 ± 0.03 | 0.976 ± 0.033 | 0.772 ± 0.012 | 0.472 ± 0.011 | 0.303 ± 0.015 | 0.194 ± 0.015 | 0.0391 ± 0.0062 |
| Cn1cc(-c2cc3c(N4CCN(c5ncc([C@@](C)(N)c6ccc(F)cc6)cn5)CC4)ncnn3c2)cn1 [Avapritinib] | 1.02 ± 0.02 | 1.06 ± 0.024 | 1.05 ± 0.023 | 1.05 ± 0.063 | 1.02 ± 0.056 | 0.959 ± 0.061 | 0.77 ± 0.019 | 0.507 ± 0.013 | 0.359 ± 0.024 | 0.282 ± 0.017 | 0.212 ± 0.012 |
| O=C(Cc1ccc(-c2ccc(OCCN3CCOCC3)cc2)cn1)NCc1ccccc1 [KX2-391] | 1.09 ± 0.031 | 1.07 ± 0.042 | 1.11 ± 0.04 | 1.05 ± 0.033 | 1.04 ± 0.084 | 0.894 ± 0.072 | 0.458 ± 0.064 | 0.36 ± 0.032 | 0.341 ± 0.014 | 0.31 ± 0.02 | 0.266 ± 0.0096 |
| CO[C@H]1C[C@@H]2CC[C@@H](C)[C@@](O)(O2)C(=O)C(=O)N2CCCC[C@H]2C(=O)O[C@H]([C@H](C)C[C@@H]2CC[C@@H](OP(C)(C)=O)[C@H](OC)C2)CC(=O)[C@H](C)/C=C(\C)[C@@H](O)[C@@H](OC)C(=O)[C@H](C)C[C@H](C)/C=C/C=C/C=C/1C [Ridaforolimus] | 0.996 ± 0.029 | 0.915 ± 0.019 | 0.783 ± 0.025 | 0.677 ± 0.047 | 0.601 ± 0.07 | 0.582 ± 0.036 | 0.576 ± 0.02 | 0.512 ± 0.042 | 0.532 ± 0.023 | 0.513 ± 0.043 | 0.499 ± 0.0088 |
| CCc1cc2c(cc1N1CCC(N3CCOCC3)CC1)C(C)(C)c1[nH]c3cc(C#N)ccc3c1C2=O [Alectinib] | 1.09 ± 0.015 | 1.07 ± 0.028 | 1.09 ± 0.023 | 1.1 ± 0.036 | 1.08 ± 0.012 | 1.09 ± 0.0079 | 1.13 ± 0.021 | 1.13 ± 0.014 | 1.104 ± 0.005 | 1.14 ± 0.036 | 1.14 ± 0.07 |
| C[C@@H](c1ccc2nccn2c1)n1nnc2ncc(-c3cnn(C)c3)nc21 [Volitinib] | 1.05 ± 0.014 | 1.08 ± 0.046 | 1.1 ± 0.031 | 1.08 ± 0.038 | 1.08 ± 0.033 | 1.07 ± 0.026 | 1.06 ± 0.031 | 1.06 ± 0.044 | 1.05 ± 0.042 | 0.962 ± 0.038 | 0.842 ± 0.072 |
| CC1(C)CNc2cc(NC(=O)c3cccnc3NCc3ccncc3)ccc21 [Motesanib] | 0.977 ± 0.038 | 1.01 ± 0.046 | 1.01 ± 0.037 | 0.995 ± 0.015 | 0.968 ± 0.025 | 0.895 ± 0.045 | 0.76 ± 0.059 | 0.524 ± 0.017 | 0.393 ± 0.0075 | 0.3783 ± 0.0025 | 0.312 ± 0.012 |
| CN1CCN(c2ccc3nc(-c4c(N)c5c(F)cccc5[nH]c4=O)[nH]c3c2)CC1 [Dovitinib] | 1.1 ± 0.031 | 1.06 ± 0.031 | 1.06 ± 0.064 | 1.07 ± 0.046 | 1.01 ± 0.052 | 1.03 ± 0.056 | 0.907 ± 0.1 | 0.771 ± 0.029 | 0.355 ± 0.054 | 0.0814 ± 0.011 | 0.0143 ± 0.0029 |
| CNC(=O)c1cc(Oc2ccc(NC(=O)Nc3ccc(Cl)c(C(F)(F)F)c3)c(F)c2)ccn1 [Regorafenib] | 1.06 ± 0.046 | 1.07 ± 0.05 | 1.05 ± 0.067 | 1.08 ± 0.051 | 1.079 ± 0.0072 | 1.05 ± 0.032 | 0.987 ± 0.06 | 0.589 ± 0.033 | 0.434 ± 0.0088 | 0.305 ± 0.033 | 0.219 ± 0.0053 |
| Cc1nc(NC(=O)N2CCC[C@H]2C(N)=O)sc1-c1ccnc(C(C)(C)C(F)(F)F)c1 [Alpelisib] | 0.942 ± 0.046 | 0.988 ± 0.037 | 1 ± 0.02 | 1.02 ± 0.06 | 0.983 ± 0.019 | 0.925 ± 0.035 | 0.895 ± 0.038 | 0.7675 ± 0.0064 | 0.651 ± 0.027 | 0.557 ± 0.052 | 0.414 ± 0.03 |
| CCN1CCN(Cc2ccc(Nc3ncc(F)c(-c4cc(F)c5nc(C)n(C(C)C)c5c4)n3)nc2)CC1 [Abemaciclib] | 1.05 ± 0.033 | 1.04 ± 0.035 | 1.04 ± 0.017 | 1.03 ± 0.034 | 0.976 ± 0.015 | 0.876 ± 0.027 | 0.77 ± 0.08 | 0.564 ± 0.023 | 0.417 ± 0.024 | 0.383 ± 0.031 | 0.333 ± 0.029 |
| CC[C@H](Nc1ncnc2[nH]cnc12)c1nc2cccc(F)c2c(=O)n1-c1ccccc1 [Idelalisib] | 1.08 ± 0.023 | 1.1 ± 0.043 | 1.1 ± 0.032 | 1.1 ± 0.046 | 1.07 ± 0.081 | 1.06 ± 0.041 | 1.03 ± 0.023 | 1.02 ± 0.021 | 0.973 ± 0.067 | 0.835 ± 0.015 | 0.61 ± 0.033 |
| C=CC(=O)N1CCC[C@@H](n2nc(-c3ccc(Oc4ccccc4)cc3)c3c(N)ncnc32)C1 [Ibrutinib] | 1.03 ± 0.019 | 1.06 ± 0.11 | 1.04 ± 0.057 | 1.07 ± 0.059 | 1.05 ± 0.048 | 1.09 ± 0.034 | 1.07 ± 0.095 | 1.07 ± 0.026 | 1.008 ± 0.0098 | 0.939 ± 0.13 | 0.525 ± 0.026 |
